Residues, ends and D or L forms follow the SMILES beside them.
Tests used:
[1] = system: MCF-10A cells; test: Biological effects of CT20 in HBPE-NPs in normal control epithelial cells; type: cell-based, human; conditions: CT20 (˜3.4 nM) in HBPE-NPs
Description: This triggered hyperpolarization of the mitochondrial membrane and fusion-like aggregation (FIG. 3B) that impaired mitochondrial redistribution, ATP production, and F-actin polymerization (FIG. 3C). Cells remained viable during these “initiating events” (FIG. 3D). However, at 6 hours post-CT20 treatment, cells began detaching from the substrate (fibronectin) (FIG. 3E). This was preceded by decreased expression of integrins (β1 integrin is shown; FIG. 3F). By 24 hours post-CT20 treatment, “effector events” caused by peptide-induced detachment were detected, including the activation of caspases (FIG. 3G), the induction of autophagy (FIG. 3H), and increased ROS production (FIG. 3I). Cell death (anoikis), indicated by membrane asymmetry, was detected in cancer cells by 48 hours (FIG. 3J).

[2] = molecular target: T1, CCTβ (Homo sapiens, UniProt P78371); test: Lysate pull-down with CT20p-biotin, immunoblot for CCTβ; type: binding; conditions: TNBC cell lines and MCF-10A lysates; more so in the MSL subtypes
T1 construct: probing lysates from the TNBC cell lines and MCF-10A cells with CT20p-biotin; endogenous in cells; host or cells: lysates of MDA-MB-231, MDA-MB-436, MDA-MB-468, BT-549 and MCF-10A cells
Description: Immunoblotting: Cell lysates were obtained by mechanical douncing in fractionation buffer consisting of 210 mM sucrose, 70 mM mannitol, 10 mM HEPES, 1 mM EDTA, pH 7.4. Lysates were centrifuged at 1,000×g for 10 minutes at 4° C., and the supernatants were subjected to SDS-PAGE, followed by transfer to Immobilon-FL membranes (Millipore). Blots were probed with primary antibodies against CCTβ (Millipore), […]. (Abcam), CCTε (Abcam), or p38 (Santa Cruz). Detection was performed by incubation with IRDye 800CW or IRDye 680CW secondary antibodies (LI-COR), followed by imaging on the Oddysey detection system (LI-COR). Quantificition of Western blots was performed with Image Studio software (LI-COR). Proteins of interest were quantified relative to p38 loading controls, then normalized to the level in MCF-10A cells.
(§1) Pull down experiments: Lysate pull-downs were performed with 200 ug cell lysate, obtained by douncing as described above. Lysates were pre-cleared with streptavidin-agarose beads (Pierce), then incubated with […] of CT20-Biotin or biotin for 3 hours at room temperature, followed by overnight incubation at 4° C. with streptavidin-agarose beads. Beads were washed thoroughly with wash buffer (25 mM Tris, 150 mM NaCl, 0.1% NP40, pH7.4), then heated in 4× loading buffer (Invitrogen) for analysis by SDS-PAGE. Mass spectrometric analysis was performed by Moffit Cancer Center (Tampa, FL). […]

[3] = molecular target: T2, CCTβ in MDA-MB-231 cells (Homo sapiens, UniProt P78371); test: In-cell pull down (CT20p-biotin in HBPE-nanoparticles), blot for CCTβ; type: cell-based; conditions: whole cell lysates
T2 construct: delivered to viable MDA-MB-231 and MCF-10A cells, followed by gentle cell lysis; endogenous in cells; host or cells: MDA-MB-231
Description: as §1, with “FL). Mass spectrometry results presented are of proteins with at least two unique peptides identified, and that were not recovered with biotin-only pull down. In-cell pull downs were performed by first delivering CT20p-Biotin encapsulated in nanoparticles to viable cells at a dose of 75 μg/mL for varying lengths of time. Following treatment, cells were collected and lysed by douncing. 200 ug of cell lysate were then incubated with streptavidin-agarose beads overnight at 4° C., and pull-down was completed as described above.” for “FL).”
Because pull downs performed in cell lysates may emphasize non-specific protein interactions, we designed an in-cell pull down assay to better reflect interactions in the intracellular environment. […] Indeed, no pull down was detected with DiI-loaded nanoparticles.

[4] = system: TNBC cell lines and MCF-10A; test: Metabolic stress tests (Seahorse, oxygen consumption and extracellular acidification); type: cell-based, human; conditions: 75 ug/mL for 24 hours before the assay
Description: Measurement of oxygen consumption and extracellular acidification: 24-well culture plates for use with the Seahorse XFe24 analyzer were coated with Cell-Tak (BD Bioscience) at 3.5 ug/cm2. Cells were then seeded at 60,000 cells/well and allowed to adhere overnight. Measurements of oxygen consumption rate and extracellular acidification rate were obtained using a Seahorse XFe 24 analyzer (Seahorse Bioscience). To obtain mitochondrial metabolic profiles, injections of oligomycin (1 uM), FCCP (0.3 uM), rotenone (0.1 uM), and antimycin A (2 uM) were performed. The mitochondrial coupling efficiency was calculated as: [1−(minimum oligomycin response/final basal measurement)]×100. To obtain glycolytic metabolic profiles, injections of glucose (10 mM), oligomycin (1 uM), and 2-deoxy-D-glucose (100 mM) were performed. Glycolytic reserve capacity was calculated as: maximum oligomycin response−maximum glucose response. […] Metabolic capacity was defined as the maximum recorded measurement in both mitochondrial and glycolytic contexts. CT20p-treated results were calculated as a percentage of untreated results.
The effect of CT20p on cellular metabolism was also examined by pre-treating the cells with CT20p prior to running metabolic stress tests. Glycolytic capacity (FIG. 6C) and respiration capacity (FIG. 6F) were calculated for treated cells with respect to untreated cells.

[5] = system: cells isolated from paired normal tissue; test: Lethality in cells isolated from paired normal tissue; type: cell-based, human; conditions: CT20 peptide in HBPE-NPs
Text: 40× magnification. CCTβ was detected in invasive breast cancer.
The lethality of CT20 was also examined in cells isolated from primary breast tumors and paired normal tissue. […] To this end, the levels of CCTβ were examined in a pilot tissue array of breast cancer tissue cores by immunohistochemistry (IHC) and detected CCTβ in invasive breast cancer (FIG. 14B).

CC[C@H](C)[C@H](NC(=O)[C@@H](NC(=O)[C@H](CC(C)C)NC(=O)[C@H](CO)NC(=O)[C@H](C)NC(=O)[C@@H](NC(=O)[C@H](CC(C)C)NC(=O)[C@@H](NC(=O)CNC(=O)[C@H](C)NC(=O)[C@@H](NC(=O)[C@H](Cc1ccccc1)NC(=O)[C@@H](NC(=O)[C@@H](NC(=O)[C@@H](NC(C)=O)C(C)C)[C@@H](C)O)[C@@H](C)CC)C(C)C)C(C)C)[C@@H](C)O)[C@@H](C)O)C(=O)N[C@@H](Cc1c[nH]c2ccccc12)C(=O)N[C@@H](CCCCN)C(=O)N[C@@H](CCCCN)C(=O)N[C@@H](CCSC)C(=O)NCC(N)=O [CT20] (Ac-VTIFVAGVLTASLTIWKKMG-NH2)
Cytoskeletal impairment and cell death in control epithelial cell line [1]: not observed | Cytoskeletal impairment and cell death in control epithelial cell line ([1]; listed as CT20 peptide): minimal cell death | Interaction with CCTβ in cell lysates [2]: able to interact with CCTβ in all cell lines | Effect on total CCTβ protein levels [3]: does not affect | Metabolic responses (glycolytic capacity, respiration capacity) that could explain the cytotoxicity pattern [4]: None of the cell lines displayed metabolic responses | Lethality [5]: not the normal cells

Source: patent US12178840B2, “Method and compositions comprising a CT20 peptide” (UNIVERSITY OF CENTRAL FLORIDA RESEARCH FOUNDATION, INC., priority 2014, dated 2024)
